According to PubChem BioAssay AID248 (DTP/NCI, 2004):
Several values for one entry are separate records, joined by “and”; a condition that tells them apart may be missing. Equal entries are not always repeated. Toxic doses and inconclusive results are not listed. Rule as the data show it: active = T/C of 150% or more; inactive = T/C below 125%.

System: L1210 leukemia ip in BDF1 mice, survival T/C
Assay: NCI In Vivo Anticancer Drug Screen. Data for tumor model L1210 Leukemia (intraperitoneal) in B6D2F1 (BDF1) mice
Details: endpoint: mean survival time, higher = longer survival
Method in brief: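 Antitumor effect is assessed in tumor-bearing animals. Survival in the compound arm is compared with a vehicle-dosed control arm and expressed as their quotient.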

[1] = dose: 25.0 mg/kg/injection, schedule: Q01DX009 (ip), vehicle: saline with Tween-80
[2] = dose: 25.0 mg/kg/injection, schedule: Q04DX003 (ip), vehicle: saline with Tween-80
[3] = dose: 50.0 mg/kg/injection, schedule: Q01DX009 (ip), vehicle: saline with Tween-80
[4] = dose: 50.0 mg/kg/injection, schedule: Q04DX003 (ip), vehicle: saline with Tween-80
[5] = dose: 100.0 mg/kg/injection, schedule: Q01DX009 (ip), vehicle: saline with Tween-80
[6] = dose: 100.0 mg/kg/injection, schedule: Q04DX002 (ip), vehicle: saline with Tween-80
[7] = dose: 200.0 mg/kg/injection, schedule: Q01DX009 (ip), vehicle: saline with Tween-80
[8] = dose: 200.0 mg/kg/injection, schedule: Q04DX002 (ip), vehicle: saline with Tween-80
[9] = dose: 400.0 mg/kg/injection, schedule: Q01DX009 (ip), vehicle: saline with Tween-80
[10] = dose: 400.0 mg/kg/injection, schedule: Q04DX002 (ip), vehicle: saline with Tween-80
[11] = dose: 25.0 mg/kg/injection, schedule: Q01DX001 (ip), vehicle: saline
[12] = dose: 50.0 mg/kg/injection, schedule: Q01DX001 (ip), vehicle: saline
[13] = dose: 100.0 mg/kg/injection, schedule: Q04DX003 (ip), vehicle: saline with Tween-80
[14] = dose: 200.0 mg/kg/injection, schedule: Q04DX003 (ip), vehicle: saline with Tween-80
[15] = dose: 400.0 mg/kg/injection, schedule: Q04DX003 (ip), vehicle: saline with Tween-80
[16] = dose: 100.0 mg/kg/injection, schedule: Q01DX001 (ip), vehicle: saline
[17] = dose: 200.0 mg/kg/injection, schedule: Q01DX001 (ip), vehicle: saline
[18] = dose: 50.0 mg/kg/injection, schedule: Q04DX002 (ip), vehicle: saline with Tween-80

Measured: T/C

N#CC(Nc1ccccc1)C1CC1c1ccccc1 (stereo unspecified)
inactive: dose: 12.5 mg/kg/injection, schedule: Q01DX009 (ip), vehicle: saline with Tween-80 94 % of control | dose: 12.5 mg/kg/injection, schedule: Q04DX003 (ip), vehicle: saline with Tween-80 98 % of control | [1] 100 % of control | [2] 102 % of control | [3] 95 % of control | [4] 101 % of control

Cc1ccc(Cl)cc1NC(=O)Nc1cc(C(C)C)ccc1C
inactive: [5] 93 % of control and 100 % of control | [6] 100 % of control and 90 % of control | [7] 93 % of control and 91 % of control | [8] 93 % of control and 94 % of control | [9] 86 % of control | [10] 96 % of control and 101 % of control

CC(C)=CC[P+](c1ccccc1)(c1ccccc1)c1ccccc1
inactive: dose: 3.13 mg/kg/injection, schedule: Q01DX009 (ip), vehicle: saline 111 % of control | dose: 6.25 mg/kg/injection, schedule: Q01DX009 (ip), vehicle: saline 106 % of control | dose: 12.5 mg/kg/injection, schedule: Q01DX009 (ip), vehicle: saline 100 % of control and 106 % of control | [11] 102 % of control | dose: 25.0 mg/kg/injection, schedule: Q01DX009 (ip), vehicle: saline 98 % of control | [12] 90 % of control | dose: 50.0 mg/kg/injection, schedule: Q01DX009 (ip), vehicle: saline 98 % of control and 90 % of control

Cc1ccc(O)c(C)n1
inactive: dose: 66.0 mg/kg/injection, schedule: Q01DX009 (ip), vehicle: saline 98 % of control | dose: 150.0 mg/kg/injection, schedule: Q01DX009 (ip), vehicle: saline 97 % of control | dose: 200.0 mg/kg/injection, schedule: Q01DX009 (ip), vehicle: saline 93 % of control | dose: 400.0 mg/kg/injection, schedule: Q01DX009 (ip), vehicle: saline 102 % of control

COc1ccc(C(=O)c2ccc(OC)c(OC)c2C(=O)O)cc1
inactive: dose: 100.0 mg/kg/injection, schedule: Q04DX003 (ip), vehicle: saline 106 % of control | dose: 200.0 mg/kg/injection, schedule: Q04DX003 (ip), vehicle: saline 114 % of control | dose: 400.0 mg/kg/injection, schedule: Q04DX003 (ip), vehicle: saline 103 % of control

O=C1c2ccccc2C(=O)N1CNc1cccc(NCN2C(=O)c3ccccc3C2=O)c1
inactive: [13] 91 % of control | [14] 97 % of control | [15] 102 % of control

Nc1cc(Cl)cc2c1-c1c(Cl)cc(Cl)cc1C2=O
inactive: dose: 100.0 mg/kg/injection, schedule: Q01DX009 (ip), vehicle: Klucel (hydroxypropylcellulose) (HPC) 100 % of control | dose: 100.0 mg/kg/injection, schedule: Q04DX003 (ip), vehicle: Klucel (hydroxypropylcellulose) (HPC) 97 % of control | dose: 200.0 mg/kg/injection, schedule: Q01DX009 (ip), vehicle: Klucel (hydroxypropylcellulose) (HPC) 106 % of control | dose: 200.0 mg/kg/injection, schedule: Q04DX003 (ip), vehicle: Klucel (hydroxypropylcellulose) (HPC) 95 % of control

CSc1nc(C)c(Br)c(Nc2ccc(C(N)=O)cc2)n1
inactive: dose: 87.5 mg/kg/injection, schedule: Q01DX009 (ip), vehicle: Klucel (hydroxypropylcellulose) (HPC) 94 % of control | dose: 175.0 mg/kg/injection, schedule: Q01DX009 (ip), vehicle: Klucel (hydroxypropylcellulose) (HPC) 91 % of control | dose: 350.0 mg/kg/injection, schedule: Q01DX009 (ip), vehicle: Klucel (hydroxypropylcellulose) (HPC) 101 % of control

CNC(=O)NNC(=O)CNC(=O)Nc1cccc(C(F)(F)F)c1
inactive: dose: 12.5 mg/kg/injection, schedule: Q01DX009 (ip), vehicle: Klucel (hydroxypropylcellulose) (HPC) 94 % of control | dose: 25.0 mg/kg/injection, schedule: Q01DX009 (ip), vehicle: Klucel (hydroxypropylcellulose) (HPC) 102 % of control | dose: 50.0 mg/kg/injection, schedule: Q01DX009 (ip), vehicle: Klucel (hydroxypropylcellulose) (HPC) 98 % of control

C/C(=C1/c2ccccc2-c2n[nH]c(C)c21)S(=O)(=O)O
inactive: [5] 95 % of control | [13] 94 % of control | [7] 88 % of control | [14] 105 % of control | [9] 95 % of control | [15] 91 % of control

Nc1nc(N)c(N=Nc2ccc(SCC(=O)O)cc2)c(=O)[nH]1
inactive: [16] 93 % of control | [17] 98 % of control | dose: 400.0 mg/kg/injection, schedule: Q01DX001 (ip), vehicle: saline 96 % of control

c1ccc(CCC[P+](c2ccccc2)(c2ccccc2)c2ccccc2)cc1
inactive: dose: 2.5 mg/kg/injection, schedule: Q01DX009 (ip), vehicle: saline 113 % of control | dose: 5.0 mg/kg/injection, schedule: Q01DX001 (ip), vehicle: saline 101 % of control | dose: 5.0 mg/kg/injection, schedule: Q01DX009 (ip), vehicle: saline 118 % of control | dose: 10.0 mg/kg/injection, schedule: Q01DX001 (ip), vehicle: saline 95 % of control | dose: 10.0 mg/kg/injection, schedule: Q01DX009 (ip), vehicle: saline 102 % of control | dose: 20.0 mg/kg/injection, schedule: Q01DX001 (ip), vehicle: saline 117 % of control | dose: 40.0 mg/kg/injection, schedule: Q01DX001 (ip), vehicle: saline 117 % of control

Cc1c(/C=N/NC(=O)CCCC(=O)N/N=C/c2c(C)n(C)n(-c3ccccc3)c2=O)c(=O)n(-c2ccccc2)n1C
inactive: [12] 102 % of control | [16] 93 % of control

O=C(NCCN1CCOCC1)Nc1cccc2c1CCCC2
inactive: [6] 94 % of control | [8] 108 % of control | [10] 116 % of control

CC(=O)Nc1nc[nH]c1C(N)=O
inactive: dose: 100.0 mg/kg/injection, schedule: Q01DX001 (ip), vehicle: saline with Tween-80 106 % of control | dose: 200.0 mg/kg/injection, schedule: Q01DX001 (ip), vehicle: saline with Tween-80 105 % of control | dose: 400.0 mg/kg/injection, schedule: Q01DX001 (ip), vehicle: saline with Tween-80 100 % of control

Cc1cccc(C(C)(C)C#N)c1
inactive: [3] 92 % of control | [5] 101 % of control | [7] 90 % of control

CC(C)(C)C#C/C(=N\Nc1ccc([N+](=O)[O-])cc1[N+](=O)[O-])c1ccccc1
inactive: [18] 89 % of control | [6] 96 % of control | [10] 86 % of control

CCC1(C)CCC2(C)C(CCC3C(C)(CO)CCCC32O)C1 (stereo unspecified)
inactive: dose: 12.5 mg/kg/injection, schedule: Q04DX002 (ip), vehicle: saline with Tween-80 96 % of control | dose: 25.0 mg/kg/injection, schedule: Q04DX002 (ip), vehicle: saline with Tween-80 96 % of control | [18] 96 % of control

CC1(C)C(C)(C)C12C=CC=C2
inactive: [11] 104 % of control | [12] 102 % of control | [16] 101 % of control

O=[N+]([O-])c1ccc(Oc2cccc([N+](=O)[O-])c2)cc1
inactive: dose: 222.0 mg/kg/injection, schedule: Q01DX Z (ip), vehicle: methylcellulose (MC) 90 % of control | dose: 333.0 mg/kg/injection, schedule: Q01DX Z (ip), vehicle: methylcellulose (MC) 95 % of control | dose: 500.0 mg/kg/injection, schedule: Q01DX Z (ip), vehicle: methylcellulose (MC) 92 % of control

CC(C)(CO)NCc1ccc(Cl)cc1
inactive: [16] 93 % of control | [17] 97 % of control

N=C(N)c1ccc(C(=O)Oc2ccc([N+](=O)[O-])cc2)cc1
inactive: [1] 103 % of control | [2] 94 % of control | [3] 97 % of control | [4] 97 % of control | [13] 98 % of control and 92 % of control

COc1ccc(/C=C/C(=O)c2ccc(OC)c(OCc3ccccc3)c2)cc1OC
inactive: dose: 100.0 mg/kg/injection, schedule: Q01DX009 (ip), vehicle: water 98 % of control | dose: 100.0 mg/kg/injection, schedule: Q04DX003 (ip), vehicle: water 98 % of control | dose: 200.0 mg/kg/injection, schedule: Q01DX009 (ip), vehicle: water 93 % of control | dose: 200.0 mg/kg/injection, schedule: Q04DX003 (ip), vehicle: water 94 % of control | dose: 400.0 mg/kg/injection, schedule: Q01DX009 (ip), vehicle: water 97 % of control | dose: 400.0 mg/kg/injection, schedule: Q04DX003 (ip), vehicle: water 98 % of control
